In patent US5854204A, “Aβ peptides that modulate β-amyloid aggregation” (priority 1996, dated 1998):
Peptide text beside a SMILES is read from it. * marks the point of attachment. Cholyl = C[C@H](CCC(=O)*)[C@H]1CC[C@H]2[C@@H]3[C@H](O)C[C@@H]4C[C@H](O)CC[C@]4(C)[C@H]3C[C@H](O)[C@]12C

Assays:
Aβ1-40 [1] = biological target: T1, Aβ1-40 (Homo sapiens, UniProt P05067); test: Seeded extension assay (thioflavin T fluorescence); type: biochemical; design: Natural β-AP (β-AP1-40) was obtained commercially from Bachem (Torrance, Calif.); purchased Bachem (Torrance, Calif.); details: Table V; 25 mole % inhibitor
T1 sequence (P05067 672-711): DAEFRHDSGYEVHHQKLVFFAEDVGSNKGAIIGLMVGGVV
Experimental: The seeded extension assay can be employed to measure the rate of Aβ fiber formed in a solution of Aβ monomer following addition of polymeric Aβ fiber "seed". The ability of test compounds to prevent further deposition of monomeric Aβ to previously deposited amyloid is determined using a direct indicator of β-sheet formation using fluorescence. In contrast with the nucleation assay, the addition of seed provides immediate nucleation and continued growth of preformed fibrils without the need for continuous mixing, and thus results in the absence of a lag time before polymerization starts. Since this assay uses static polymerization conditions, the activity of positive compounds in the nucleation assay can be confirmed in this second assay under different conditions and with an additional probe of amyloid structure.
Samples of the solution are then diluted in thioflavin T (Th-T). The polymer-specific association of Th-T with Aβ produces a fluorescent complex that allows the measurement of the extent of fibril formation (Levine, H. (1993) Protein Science 2:404-410). In particular, association of Th-T with aggregated β-AP, but not monomeric or loosely associated β-AP, gives rise to a new excitation (ex) maximum at 450 nm and an enhanced emission (em) at 482 nm, compared to the 385 nm (ex) and 445 nm (em) for the free dye. Small aliquots of the polymerization mixture contain sufficient fibril to be mixed with Th-T to allow the monitoring of the reaction mixture by repeated sampling. A linear growth curve is observed in the presence of excess monomer. The formation of thioflavin T responsive β-sheet fibrils parallels the increase in turbidity observed using the nucleation assay.
To prepare the stock seed, 1 ml of the Aβ monomer preparation, is incubated for approximately 8 days at 37° C. and sheared sequentially through an 18, 23, 26 and 30 gauge needle 25, 25, 50, and 100 times respectively. 2 μl samples of the sheared material is taken for fluorescence measurements after every 50 passes through the 30 gauge needle until the fluorescence units (FU) plateau (approx. 100-150×). Test compounds are prepared by dissolving an appropriate amount of test compound in 1× PBS to a final concentration of 1 mM (10× stock). If insoluble, the compound is dissolved in 1/10 volume of DMSO and diluted in 1× PBS to 1 mM. A further 1/10 dilution is also prepared to test each candidate at both 100 μM and 10 μM.
To perform the seeded extension assay, each sample is set up with 50 μl of 200 μM monomer, 125 FU sheared seed (a variable quantity dependent on the batch of seed, routinely 3-6 μl) and 10 μl of 10× modulator solution. The sample volume is then adjusted to a final volume of 100 μl with 1× PBS. Two concentrations of each modulator typically are tested: 100 μM and 10 μM, equivalent to a 1:1 and a 1:10 molar ratio of monomer to modulator. The controls include an unseeded reaction to confirm that the fresh monomer contains no seed, and a seeded reaction in the absence of any modulators, as a reference to compare against candidate modulators. The assay is incubated at 37° C. for 6 h, taking 2 μl samples hourly for fluorescence measurements. To measure fluorescence, a 2 μl sample of Aβ is added to 400 μl of Thioflavin-T solution (50 mM Potassium Phosphate […] pH 7.5). The samples are vortexed and the fluorescence is read in a 0.5 ml micro quartz cuvette at EX 450 nm and EM 482 nm (Hitachi 4500 Fluorimeter).
The modulators were evaluated in the nucleation and seeded extension assays described in Example 6 and the results are summarized below in Table V. The change in lag time (ΔLag) is presented as the ratio of the lag time observed in the presence of the test compound to the lag time of the control. […] Inhibition (% Inucl'n) is listed as the percent reduction in the maximum observed turbidity in the control at the end of the assay time period. […]

Aβ1-40 [2] = biological target: T1, Aβ1-40; test: biochemical; details: read-out: % Inucl'n (percent reduction in maximum turbidity)
Source text: (§1) The nucleation assay is employed to determine the ability of test compounds to alter (e.g. inhibit) the early events in formation of β-AP fibers from monomeric β-AP. […] The time delay before polymerization of β-AP monomer can be quantified as well as the extent of formation of insoluble fiber by light scattering (turbidity). Polymerization reaches equilibrium when the maximum turbidity reaches a plateau. […] The threshold of sensitivity for the measurement of turbidity is in the range of 15-20 μM β-AP. […] This assay can be performed using stirring or shaking to accelerate polymerization, thereby increasing the speed of the assay. Moreover the assay can be adapted to a 96-well plate format to screen multiple compounds.
(§2) HFIP-solubilized peptide is sonicated in a waterbath sonicator for 5 min at highest setting, then evaporated to dryness under a stream of argon. […] Test compounds are dissolved in DMSO at a 100× concentration. […] Ten microliters of the mixture is then added to the bottom of a well of a Corning Costar ultra low binding 96-well plate (Corning Costar, Cambridge Mass.; cat. No. 2500). […] The plate is then returned to the shaker and shaken continuously for 5 hours. Turbidity readings are taken at 15 minute intervals.
(§3) Accordingly a fold increase in lag time of 1.0 indicates no change in lag time, whereas numbers >1.0 indicate an increase in lag time. The "% inhibition of plateau", which is a measure of the ability of the compound to decrease the total amount of aggregation, refers to the reduction of the final turbidity in the presence of the test compound expressed as a percent of the control without the test compound.

Aβ1-40 [3] = biological target: T1, Aβ1-40; details: for ΔLag (ratio of lag time with test compound to lag time of control): Table V, 100 mole % inhibitor relative to Aβ1-40
Source text: as §1, §2, §3
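Throughout, for % Inhibition of Plateau: Aβ nucleation assay tracking fiber polymerization from monomer by turbidity (light scattering), shaken continuously in 96-well plates, read every 15 min over 5 h, compared with compound-free control.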
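Throughout, for Fold Increase in Lag Time: Aβ nucleation assay tracking fiber polymerization from monomer by turbidity (light scattering), shaken continuously in 96-well plates, read every 15 min over 5 h, compared with compound-free control.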
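Throughout, for ΔLag (ratio of lag time with test compound to lag time of control): Aβ nucleation assay tracking fiber polymerization from monomer by turbidity (light scattering), shaken continuously in 96-well plates, read every 15 min over 5 h, compared with compound-free control.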

Compound | % Iext'n (percent reduction of thioflavin-T fluorescence) (Aβ1-40 [1]) [%] | inhibition at 100 % (Aβ1-40 [2]) [%] | % Inhibition of Plateau (Aβ1-40 [3]) | Fold Increase in Lag Time (Aβ1-40 [3]; Table IV, 100 mole %) | ΔLag (ratio of lag time with test compound to lag time of control) (Aβ1-40 [3]) | inhibition at 33 % (Aβ1-40 [2]) [%]
CC(C)C[C@H](NC(=O)[C@H](CCCCN)NC(=O)CC[C@@H](C)[C@H]1CC[C@H]2[C@@H]3[C@H](O)C[C@@H]4C[C@H](O)CC[C@]4(C)[C@H]3C[C@H](O)[C@]12C)C(=O)N[C@H](C(=O)N[C@@H](Cc1ccccc1)C(=O)N[C@@H](Cc1ccccc1)C(N)=O)C(C)C [PPI-319, cholyl-Aβ16-20-amide] | 52 | 70 | ~ 0% |  |  | 
C[C@H](NC(=O)[C@H](C)NC(=O)[C@H](C)NC(=O)[C@H](C)NC(=O)[C@H](C)NC(=O)CC[C@@H](C)[C@H]1CC[C@H]2[C@@H]3[C@H](O)C[C@@H]4C[C@H](O)CC[C@]4(C)[C@H]3C[C@H](O)[C@]12C)C(=O)O [PPI-365, Cholyl-penta-alanine, reference compound] | 0 | -7 | ~ 0% |  |  | 
CC(C)C[C@H](NC(=O)CC[C@@H](C)[C@H]1CC[C@H]2[C@@H]3[C@H](O)C[C@@H]4C[C@H](O)CC[C@]4(C)[C@H]3C[C@H](O)[C@]12C)C(=O)N[C@H](C(=O)N[C@@H](Cc1ccccc1)C(=O)N[C@@H](Cc1ccccc1)C(=O)N[C@@H](C)C(=O)O)C(C)C [PPI-368, cholyl-Aβ17-21] | 91 | 100 | 100% |  |  | 
CC(C)C[C@H](NC(=O)[C@@H](N)CCCCN)C(=O)N[C@H](C(=O)N[C@@H](Cc1ccccc1)C(=O)N[C@@H](Cc1ccccc1)C(=O)O)C(C)C [PPI-377, Aβ16-20] | 8 | 0 |  | ~ 1 fold | 1.1 | 
CC(C)C[C@H](N)C(=O)N[C@H](C(=O)N[C@@H](Cc1ccccc1)C(=O)N[C@@H](Cc1ccccc1)C(=O)N[C@@H](C)C(=O)O)C(C)C [PPI-386] | 11 | 15 |  |  | 1.0 | 
CC(C)[C@H](NC(=O)CC[C@@H](C)[C@H]1CC[C@H]2[C@@H]3[C@H](O)C[C@@H]4C[C@H](O)CC[C@]4(C)[C@H]3C[C@H](O)[C@]12C)C(=O)N[C@@H](Cc1ccccc1)C(=O)N[C@@H](Cc1ccccc1)C(=O)N[C@@H](C)C(=O)O [PPI-392] (Cholyl-VFFA-OH) | 10 | 76 |  |  |  | 
CC(C)C[C@H](NC(=O)CC[C@@H](C)[C@H]1CC[C@H]2[C@@H]3[C@H](O)C[C@@H]4C[C@H](O)CC[C@]4(C)[C@H]3C[C@H](O)[C@]12C)C(=O)N[C@H](C(=O)N[C@@H](Cc1ccccc1)C(=O)O)C(C)C [PPI-393] | 0 | 1 |  |  |  | 
CC(C)[C@H](NC(=O)CC[C@@H](C)[C@H]1CC[C@H]2[C@@H]3[C@H](O)C[C@@H]4C[C@H](O)CC[C@]4(C)[C@H]3C[C@H](O)[C@]12C)C(=O)N[C@@H](Cc1ccccc1)C(=O)N[C@@H](Cc1ccccc1)C(=O)O [PPI-394] | 0 | 55 |  |  |  | 
C[C@H](NC(=O)[C@H](Cc1ccccc1)NC(=O)[C@H](Cc1ccccc1)NC(=O)CC[C@@H](C)[C@H]1CC[C@H]2[C@@H]3[C@H](O)C[C@@H]4C[C@H](O)CC[C@]4(C)[C@H]3C[C@H](O)[C@]12C)C(=O)O [PPI-395] | 6 | 51 |  |  |  | 
CC(C)C[C@H](NC(=O)CC[C@@H](C)[C@H]1CC[C@H]2[C@@H]3[C@H](O)C[C@@H]4C[C@H](O)CC[C@]4(C)[C@H]3C[C@H](O)[C@]12C)C(=O)N[C@H](C(=O)N[C@@H](Cc1ccccc1)C(=O)N[C@@H](Cc1ccccc1)C(=O)N[C@@H](CCCCN)C(=O)O)C(C)C [PPI-407] (Cholyl-LVFFK-OH) | 85 |  |  |  |  | 100
CC(C)C[C@H](NC(=O)[C@@H](NC(=O)[C@H](Cc1ccccc1)NC(=O)[C@H](Cc1ccccc1)NC(=O)CC[C@@H](C)[C@H]1CC[C@H]2[C@@H]3[C@H](O)C[C@@H]4C[C@H](O)CC[C@]4(C)[C@H]3C[C@H](O)[C@]12C)C(C)C)C(=O)N[C@@H](C)C(=O)O [PPI-426] (Cholyl-FFVLA-OH) | 89 | 100 |  |  |  | 
CC(C)[C@H](NC(=O)[C@H](Cc1ccccc1)NC(=O)[C@H](Cc1ccccc1)NC(=O)CC[C@@H](C)[C@H]1CC[C@H]2[C@@H]3[C@H](O)C[C@@H]4C[C@H](O)CC[C@]4(C)[C@H]3C[C@H](O)[C@]12C)C(=O)O [PPI-429] | 7 | -33 |  |  |  | 
CC(C)C[C@H](NC(=O)[C@@H](NC(=O)[C@H](Cc1ccccc1)NC(=O)[C@H](Cc1ccccc1)NC(=O)CC[C@@H](C)[C@H]1CC[C@H]2[C@@H]3[C@H](O)C[C@@H]4C[C@H](O)CC[C@]4(C)[C@H]3C[C@H](O)[C@]12C)C(C)C)C(=O)O [PPI-430] (Cholyl-FFVL-OH) | 75 | 33 |  |  |  | 
